The assay deals with T1, BaCYP106A6 (Bacillus sp. (in: firmicutes), UniProt Z9J180VW61).
T1 construct: His-tagged, pET28a(+), E. coli C41(DE3); Co2+ resin; monomer; N-terminus MLKEVI and C-terminus NVYK deduced from printed primers; heme-ligating Cys356; unique Arg295
T1 sequence (Z9J180VW61 1-410): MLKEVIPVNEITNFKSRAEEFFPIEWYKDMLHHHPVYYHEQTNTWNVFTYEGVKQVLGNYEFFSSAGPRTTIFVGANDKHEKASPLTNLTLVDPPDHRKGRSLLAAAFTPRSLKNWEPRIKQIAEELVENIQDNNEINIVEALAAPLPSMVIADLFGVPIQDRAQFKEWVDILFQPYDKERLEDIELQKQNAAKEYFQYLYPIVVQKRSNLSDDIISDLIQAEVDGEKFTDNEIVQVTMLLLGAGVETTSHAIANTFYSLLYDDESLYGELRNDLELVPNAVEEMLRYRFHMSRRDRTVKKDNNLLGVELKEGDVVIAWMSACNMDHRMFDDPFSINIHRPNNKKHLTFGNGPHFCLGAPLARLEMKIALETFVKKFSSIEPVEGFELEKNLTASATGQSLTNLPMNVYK
Kind of assay: UV-visible type I difference spectral titration. The class given is binding.

The source of these data is paper PMC10084758, “Crystal Structure and Biochemical Analysis of a Cytochrome P450 Steroid Hydroxylase (BaCYP106A6) from Bacillus Species” (Journal of Microbiology and Biotechnology, 2022).

Molecules are shown by their SMILES.

In general, Kd refers to a measure of binding affinity in units of concentration. High values mean lower affinity, low ones higher affinity. `C[C@]12CCC(=O)C=C1CC[C@@H]1[C@@H]2CC[C@]2(C)C(=O)CC[C@@H]12` [androstenedione]: the affinity, expressed as Kd, was 36.6 µM.
With `CC(=O)[C@H]1CC[C@H]2[C@@H]3CCC4=CC(=O)CC[C@]4(C)[C@H]3CC[C@]12C` [progesterone] the figure was 38.4 µM.
